Here are results for 14 molecules from patent publication US20240294531A1, “COVALENT HETEROCYCLES AND USES THEREOF” (Kumquat Biosciences Inc., priority 2022, published 2024).

By IC50 is commonly meant the midpoint of a concentration-inhibition curve.

Holding throughout (format): binding
The target of assay [1] is T1, BTK wildtype protein (Homo sapiens (Human), UniProt Q06187). The experiment in a line: Kinact/KI determination for BTK protein inhibitors (Kobs). The procedure: Test compounds were prepared as 10 mM stock solutions in DMSO (Fisher cat #BP231-100). Human recombinant BTK wildtype protein 393-659 or BTK C481S protein 393-659 was produced in house or purchased from Saromics Biostructures AB (Lund, Sweden). BTK protein was diluted to 1 μM in buffer (20 mM Hepes, pH 7.5, 150 mM NaCl, 1 mM MgCl2, 1 mM DTT). For testing BTK modification, compounds were diluted to 50× final test concentration in DMSO in 96-well storage plates. 1 μL of the diluted 50× compounds were added to appropriate wells in the PCR plate (Fisher cat #AB-0800). Increasing concentrations of compounds were added to separate wells, resulting in final assay compound concentrations of 3 μM, 10 μM, 30 μM and 100 μM. 49 μL of the stock protein solution was added to each well of the 96-well PCR plate. Reactions were mixed carefully. The plate was sealed well with aluminum plate seal and stored in a drawer at room temperature. After different incubation times, the reactions were quenched by adding 5 μL of 2% formic acid (Fisher cat #A117-50) in MilliQ H2O to each well followed by mixing with a pipette. The plate was then resealed with aluminum seal and stored until mass spectrometry analysis.
The extent of covalent modification of BTK proteins was determined by liquid chromatography electrospray mass spectrometry analysis of the intact proteins using a Thermo Q-Exactive Plus mass spectrometer. 20 μL of sample was injected onto a bioZen 3.6 μm Intact C4 column (Phenomenex cat #00B-4767-AN) placed in a column oven set to 40° C. and separated using a LC gradient from 20% to 60% solvent B. Solvent A was 0.1% formic acid and solvent B was 0.1% formic acid in acetonitrile. HESI source settings were set to 40, 5 and 1 for the sheath, auxiliary and sweep gas flow, respectively. The spray voltage was 4 kV, and the capillary temperature was 320° C. S-lens RF level was 50 and auxiliary gas heater temperature was set to 200° C. The mass spectrometry was acquired using a scan range from 650 to 1750 m/z using positive polarity at a mass resolution of 70,000, AGC target of 1e6 ions and maximum injection time of 250 ms. The recorded protein mass spectrum was deconvoluted from the raw data file using Protein Deconvolution v4.0 (Thermo). The protein mass, adduct masses and their corresponding peak intensities were exported to Excel (Microsoft). The peak intensities for the unmodified and modified protein were used to calculate the percent covalent modification of the BTK protein based on the following equation: % BTK protein modification=((BTK−compound)/(BTK)+(BTK−Compound))*100.
The Kinact/KI is a rate constant describing the efficiency of covalent bond formation resulting from the potency (KI) of the first reversible binding event and the maximum potential rate (Kinact) of inactivation. The percent […] protein modification was plotted as a function of time using Prism version 9.4.1 (GraphPad), and the observed rate of modification (Kobs), a first-order rate constant with units of inverse time, was estimated using nonlinear regression at each compound concentration. […] If Kobs is increasing with compound concentration, KI is higher than 3 μM. Kinact/KI can be estimated by plotting Kobs values against each compound concentration used in separate reactions. The Kobs values are fitted to determine Kinact and KI using the following equation, Kobs=(Kinact×[compound conc])/(KI+[compound conc]).
Target sequence in this assay (Q06187 393-659): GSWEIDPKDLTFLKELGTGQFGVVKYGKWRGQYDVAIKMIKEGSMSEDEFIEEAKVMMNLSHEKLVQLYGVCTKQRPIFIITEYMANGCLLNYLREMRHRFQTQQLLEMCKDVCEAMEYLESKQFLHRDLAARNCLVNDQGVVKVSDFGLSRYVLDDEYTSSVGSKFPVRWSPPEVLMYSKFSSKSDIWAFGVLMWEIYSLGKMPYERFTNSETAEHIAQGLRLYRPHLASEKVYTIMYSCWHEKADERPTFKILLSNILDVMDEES

For assay [2], the target named is T1, BTK wildtype protein. Nature of the assay: BTK wildtype HTRF displacement assay. Conditions: 1-hour incubation; read-out: BTK (wt) IC50. Put shortly:
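Full-length N-terminal GST-tagged BTK incubated 1 h at room temperature with compound (6 doses, four-fold dilutions from 5 μM top) plus kinase tracer 239 and anti-GST-Tb antibody. Tracer displacement read as TR-FRET 665/620 ratio, background-subtracted using no-protein control. IC50 from four-parameter fit constrained 0–100% inhibition.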
Target sequence in this assay (Q06187 2-659): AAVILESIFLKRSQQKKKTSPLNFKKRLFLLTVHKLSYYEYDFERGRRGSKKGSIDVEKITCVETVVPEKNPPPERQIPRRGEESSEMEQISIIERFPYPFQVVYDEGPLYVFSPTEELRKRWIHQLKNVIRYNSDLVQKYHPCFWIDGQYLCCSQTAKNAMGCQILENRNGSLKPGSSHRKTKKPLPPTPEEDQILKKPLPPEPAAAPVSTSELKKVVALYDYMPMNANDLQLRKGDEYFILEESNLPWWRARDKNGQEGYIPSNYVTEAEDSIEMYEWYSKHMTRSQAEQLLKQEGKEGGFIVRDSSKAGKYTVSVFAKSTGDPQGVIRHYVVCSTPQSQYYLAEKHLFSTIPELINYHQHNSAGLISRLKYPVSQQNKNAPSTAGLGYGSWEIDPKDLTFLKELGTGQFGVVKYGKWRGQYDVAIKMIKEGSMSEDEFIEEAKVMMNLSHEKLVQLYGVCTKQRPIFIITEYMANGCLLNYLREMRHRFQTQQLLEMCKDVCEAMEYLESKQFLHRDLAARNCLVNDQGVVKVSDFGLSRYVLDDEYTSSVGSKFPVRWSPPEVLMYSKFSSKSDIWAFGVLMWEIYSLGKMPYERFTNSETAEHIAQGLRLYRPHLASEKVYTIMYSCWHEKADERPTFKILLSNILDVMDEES

For assay [3], the target named is BTK C481S protein (Homo sapiens (Human), UniProt Q06187, C481S). The experiment in a line: BTK C481S HTRF displacement assay. Conditions: 1-hour incubation. The method in brief:
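N-terminal GST-tagged BTK C481S (2-659) incubated 1 hour at room temperature with compound (6 doses, four-fold from 5 μM), 50 nM kinase tracer 239 and anti-GST-Tb antibody. TR-FRET 665/620 ratio, background-subtracted; IC50 from constrained four-parameter fit. KI=IC50/(1+[Tracer]/Kd), tracer Kd 54 nM.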
Background: TR-FRET usually uses a lanthanide donor and a delayed reading to cut background.

Chain of BTK C481S protein (Q06187 2-659 C481S): as the sequence (Q06187 2-659) above, with C480S counted along it

Turning to `CN(C(=O)n1cncn1)C1CCCC(C2CCNc3c(C(N)=O)c(-c4ccc(Oc5ccccc5)cc4)nn32)C1` (stereo not shown) [Compound 134, 7-(3-(N-methyl-1H-1,2,4-triazole-1-carboxamido)cyclohexyl)-2-(4-phenoxyphenyl)-4,5,6,7-tetrahydropyrazolo[1,5-a]pyrimidine-3-carboxamide], the “BTK (wt) Kobs” value in assay [1] was 132, 134, 136, 137, 138, 140, 150, 152, 153, 154, 155, M^−1 · s^−1. In addition, the IC50 in assay [2] and in assay [3] was at most 1000 nM in each case.
Consider `NC(=O)c1c(-c2ccc(Oc3ccccc3)cc2)nn2c1NCCC2C1CCN(C(=O)n2cncn2)CC1` (stereo not shown) [Compound 136, 7-(1-(1H-1,2,4-triazole-1-carbonyl)piperidin-4-yl)-2-(4-phenoxyphenyl)-4,5,6,7-tetrahydropyrazolo[1,5-a] pyrimidine-3-carboxamide], for which the “BTK (wt) Kobs” value in assay [1] is reported as 132, 134, 136, 137, 138, 140, 150, 152, 153, 154, 155, M^−1 · s^−1. Also, the IC50 in assay [2] and in assay [3] was at most 1000 nM throughout.
Consider `NC(=O)c1c(-c2ccc(Oc3ccccc3)cc2)nn2c1NCCC2C1CCN1C(=O)n1cncn1` (stereo not shown) [Compound 137, 7-(1-(1H-1,2,4-triazole-1-carbonyl)azetidin-2-yl)-2-(4-phenoxyphenyl)-4,5,6,7-tetrahydropyrazolo[1,5-a] pyrimidine-3-carboxamide], for which the “BTK (wt) Kobs” value in assay [1] is 132, 134, 136, 137, 138, 140, 150, 152, 153, 154, 155, M^−1 · s^−1. For the same molecule, the values for the IC50 in assay [2] and in assay [3] were over 1000 nM and at most 1000 nM, respectively.
As to `NC(=O)c1c(-c2ccc(Oc3ccccc3)cc2)nn2c1NCCC2[C@H]1CCCN1C(=O)n1cncn1` (stereo partly drawn) [Compound 140, 7-((R)-1-(1H-1,2,4-triazole-1-carbonyl)pyrrolidin-2-yl)-2-(4-phenoxyphenyl)-4,5,6,7-tetrahydropyrazolo[1,5-a] pyrimidine-3-carboxamide], in assay [1], the “BTK (wt) Kobs” value is 132, 134, 136, 137, 138, 140, 150, 152, 153, 154, 155, M^−1 · s^−1. Moreover, the IC50 in assay [2] was over 1000 nM; in assay [3] it was at most 1000 nM.
Regarding `COc1ccc(F)cc1C(=O)NCc1ccc(-c2nn(C3CCC(N(C)C(=O)n4cncn4)C3)c(N)c2C(N)=O)cc1` (stereo not shown) [Compound 150, N-(3-(5-amino-4-carbamoyl-3-(4-((5-fluoro-2-methoxybenzamido)methyl)phenyl)-1H-pyrazol-1-yl)cyclopentyl)-N-methyl-1H-1,2,4-triazole-1-carboxamide], in assay [1], the “BTK (wt) Kobs” value is reported as 132, 134, 136, 137, 138, 140, 150, 152, 153, 154, 155, M^−1 · s^−1. Besides, in assay [3], the IC50 was at most 1000 nM.
With `COc1ccc(F)cc1C(=O)NCc1ccc(-c2nn(C3CCCC4(CCN4C(=O)n4cncn4)C3)c3ncnc(N)c23)cc1` (stereo not shown) [Compound 152, N-(4-(1-(1-(1H-1,2,4-triazole-1-carbonyl)-1-azaspiro[3.5]nonan-6-yl)-4-amino-1H-pyrazolo[3,4-d]pyrimidin-3-yl)benzyl)-5-fluoro-2-methoxybenzamide], the “BTK (wt) Kobs” value in assay [1] is reported as 132, 134, 136, 137, 138, 140, 150, 152, 153, 154, 155, M^−1 · s^−1. This molecule came in with an IC50 in assay [3] of at most 1000 nM.
As to `COc1ccc(F)cc1C(=O)NCc1ccc(-c2nn(C[C@@H]3CCC[C@H]3CN(C)C(=O)n3cncn3)c3ncnc(N)c23)cc1` [Compound 153, N-(((1R,2R)-2-((4-amino-3-(4-((5-fluoro-2-methoxybenzamido)methyl)phenyl)-1H-pyrazolo[3,4-d]pyrimidin-1-yl)methyl)cyclopentyl)methyl)-N-methyl-1H-1,2,4-triazole-1-carboxamide], in assay [1], the “BTK (wt) Kobs” value was 132, 134, 136, 137, 138, 140, 150, 152, 153, 154, 155, M^−1 · s^−1. The IC50 in assay [2] and in assay [3] was at most 1000 nM throughout.
Turning to `COc1ccc(F)cc1C(=O)NCc1ccc(-c2nn(C[C@H]3CCCCN3C(=O)n3cncn3)c(N)c2C(N)=O)cc1` [Compound 154, (R)-1-((1-(1H-1,2,4-triazole-1-carbonyl)piperidin-2-yl)methyl)-5-amino-3-(4-((5-fluoro-2-methoxybenzamido)methyl)phenyl)-1H-pyrazole-4-carboxamide], the “BTK (wt) Kobs” value in assay [1] is given as 132, 134, 136, 137, 138, 140, 150, 152, 153, 154, 155, M^−1 · s^−1. Moreover, the IC50 in assay [2] and in assay [3] was at most 1000 nM each time.
For the molecule `COc1ccc(F)cc1C(=O)NCc1ccc(-c2nn(C(C)C(C)N(C)C(=O)n3cnnc3)c(N)c2C(N)=O)cc1` (stereo not shown) [Compound 155, N-(3-(5-amino-4-carbamoyl-3-(4-((5-fluoro-2-methoxybenzamido)methyl)phenyl)-1H-pyrazol-1-yl)butan-2-yl)-N-methyl-4H-1,2,4-triazole-4-carboxamide], the “BTK (wt) Kobs” value in assay [1] is 132, 134, 136, 137, 138, 140, 150, 152, 153, 154, 155, M^−1 · s^−1. For the same molecule, the IC50 in assay [2] is over 1000 nM; in assay [3] it was at most 1000 nM.
As for `COc1ccc(F)cc1C(=O)NCc1ccc(-c2nn(C(C)C(C)CN(C)C(=O)n3cncn3)c3ncnc(N)c23)cc1` (stereo not shown) [Compound 248, N-(3-(4-amino-3-(4-((5-fluoro-2-methoxybenzamido)methyl)phenyl)-1H-pyrazolo[3,4-d]pyrimidin-1-yl)-2-methylbutyl)-N-methyl-1H-1,2,4-triazole-1-carboxamide], the “BTK (wt) Kobs” value in assay [1] was 248, 249, 250, 253, 254, 256, 259, 260, 261, 264, 265, M^−1 · s^−1. Besides, the IC50 in assay [2] is at most 1000 nM.
On to `COc1ccc(F)cc1C(=O)NCc1ccc(-c2nn(C(C)C3CCCCN3C(=O)n3cncn3)c(N)c2C(N)=O)cc1` (stereo not shown) [Compound 249, 1-(1-(1-(1H-1,2,4-triazole-1-carbonyl)piperidin-2-yl)ethyl)-5-amino-3-(4-((5-fluoro-2-methoxybenzamido)methyl)phenyl)-1H-pyrazole-4-carboxamide], for which the “BTK (wt) Kobs” value in assay [1] is given as 248, 249, 250, 253, 254, 256, 259, 260, 261, 264, 265, M^−1 · s^−1. Further, the IC50 in assay [2] and in assay [3] was at most 1000 nM in each case.
In the case of `COc1ccc(F)cc1C(=O)NCc1ccc(-c2nn(C(C)C(C)N(C)C(=O)n3cncn3)c3ncnc(N)c23)cc1` (stereo not shown) [Compound 250, N-(3-(4-amino-3-(4-((5-fluoro-2-methoxybenzamido)methyl)phenyl)-1H-pyrazolo[3,4-d]pyrimidin-1-yl)butan-2-yl)-N-methyl-1H-1,2,4-triazole-1-carboxamide], in assay [1], the “BTK (wt) Kobs” value is listed as 248, 249, 250, 253, 254, 256, 259, 260, 261, 264, 265, M^−1 · s^−1. Further, the IC50 in assay [2] and in assay [3] was at most 1000 nM each time.
As to `NC(=O)c1c(-c2ccc(Oc3ccccc3)cc2)nn(C2CCCC3C2CCN3C(=O)n2cncn2)c1N` (stereo not shown) [Compound 253, 1-(1-(1H-1,2,4-triazole-1-carbonyl)octahydro-1H-indol-4-yl)-5-amino-3-(4-phenoxyphenyl)-1H-pyrazole-4-carboxamide], the “BTK (wt) Kobs” value in assay [1] is listed as 248, 249, 250, 253, 254, 256, 259, 260, 261, 264, 265, M^−1 · s^−1.
With `COc1ccc(F)cc1C(=O)NCc1ccc(-c2nn(C(CCCN(C)C(=O)n3cncn3)N(C)C)c3ncnc(N)c23)cc1` (stereo not shown) [Compound 254, N-(4-(4-amino-3-(4-((5-fluoro-2-methoxybenzamido)methyl)phenyl)-1H-pyrazolo[3,4-d]pyrimidin-1-yl)-4-(dimethyl-amino)butyl)-N-methyl-1H-1,2,4-triazole-1-carboxamide], the “BTK (wt) Kobs” value in assay [1] was 248, 249, 250, 253, 254, 256, 259, 260, 261, 264, 265, M^−1 · s^−1. The IC50 in assay [2] and in assay [3] was over 1000 nM each time.
